Test results: patent US9493461B2, “Tetracyclic heterocycle compounds and methods of use thereof for the treatment of hepatitis C” (priority 2013, dated 2016)

Columns and labels:
HCV replicon genotype 1a = assay: HCV replicon assay, genotype 1a (cell ELISA for replicon-encoded NS3/4A); format: cell-based, hepatitis C virus (HCV); details: Hepatitis C virus, 96 h, read-out: 1a IC50 (nM), genotype 1a replicon cells, 96 hours incubation, NS3/4A ELISA readout, % of DMSO control
Outline: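 Stable G418-selected neomycin-resistant HCV replicon cells were plated with serially diluted compound without G418 and incubated 96 h. After washing and lysis, replicon RNA was measured indirectly by cell ELISA for replicon-encoded NS3/4A; IC50 from four-parameter fit relative to DMSO control.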

HCV replicon genotype 1b = assay: HCV replicon assay, genotype 1b (cell ELISA for replicon-encoded NS3/4A); format: cell-based, hepatitis C virus (HCV); details: Hepatitis C virus, 96 h, read-out: 1b IC50 (nM), genotype 1b replicon cells, 96 hours incubation, NS3/4A ELISA readout, % of DMSO control
Outline: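 Genotype 1b replicon cells (neomycin-selected, G418 removed for assay) incubated 96 h with compound dilution series. Replication measured by cell ELISA for replicon-encoded NS3/4A after lysis; IC50 from four-parameter fit relative to DMSO control.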

## CNC(=O)c1c(-c2ccc(F)cc2)oc2cc(N(C)S(C)(=O)=O)c(-c3ccc4nc(CN5CCC(C)(O)CC5)n5c6cccc(F)c6cc5c4n3)cc12 [Example 93]
HCV replicon genotype 1a
  IC50: 4.19 nM
HCV replicon genotype 1b
  IC50: 7.78 nM

## CNC(=O)c1c(-c2ccc(F)cc2)oc2cc(N(C)S(C)(=O)=O)c(-c3ccc4nc(CN5CC(O)(C(F)(F)F)C5)n5c6cccc(F)c6cc5c4n3)cc12 [Example 94]
HCV replicon genotype 1a
  IC50: 4.33 nM
HCV replicon genotype 1b
  IC50: 6.98 nM

## CNC(=O)c1c(-c2ccc(F)cc2)oc2cc(N(C)S(C)(=O)=O)c(-c3ccc4nc(CN5CC(O)(C6CC6)C5)n5c6cccc(F)c6cc5c4n3)cc12 [Example 95]
HCV replicon genotype 1a
  IC50: 4.55 nM
HCV replicon genotype 1b
  IC50: 9.12 nM

## CNC(=O)c1c(-c2ccc(F)cc2)oc2cc(N(C)S(C)(=O)=O)c(-c3ccc4nc(CN5[C@H](C)COC[C@@H]5C)n5c6cccc(F)c6cc5c4n3)cc12 [Example 96]
HCV replicon genotype 1a
  IC50: 7.76 nM
HCV replicon genotype 1b
  IC50: 11.2 nM

## CNC(=O)c1c(-c2ccc(F)cc2)oc2cc(N(C)S(C)(=O)=O)c(-c3ccc4nc(CN5CC(C(C)(C)O)C5)n5c6cccc(F)c6cc5c4n3)cc12 [Example 97]
HCV replicon genotype 1a
  IC50: 2.98 nM
HCV replicon genotype 1b
  IC50: 3.49 nM

## CNC(=O)c1c(-c2ccc(F)cc2)oc2cc(N(C)S(C)(=O)=O)c(-c3ccc4nc(CN5CCN6C(=O)OCC6C5)n5c6cccc(F)c6cc5c4n3)cc12 (centres unmarked) [Example 98]
HCV replicon genotype 1a
  IC50: 4.79 nM
HCV replicon genotype 1b
  IC50: 4.16 nM

## CNC(=O)c1c(-c2ccc(F)cc2)oc2cc(N(C)S(C)(=O)=O)c(-c3ccc4nc(CN5CCC5(C)C)n5c6cccc(F)c6cc5c4n3)cc12 [Example 99]
HCV replicon genotype 1a
  IC50: 3.32 nM
HCV replicon genotype 1b
  IC50: 5.76 nM

## CNC(=O)c1c(-c2ccc(F)cc2)oc2cc(N(C)S(C)(=O)=O)c(-c3ccc4nc(CN5CC[C@@H](OC)C5)n5c6cccc(F)c6cc5c4n3)cc12 [Example 100]
HCV replicon genotype 1a
  IC50: 2.6 nM
HCV replicon genotype 1b
  IC50: 4.46 nM

## CNC(=O)c1c(-c2ccc(F)cc2)oc2cc(N(C)S(C)(=O)=O)c(-c3ccc4nc(CN5C[C@H](F)[C@@H](F)C5)n5c6cccc(F)c6cc5c4n3)cc12 [Example 101]
HCV replicon genotype 1a
  IC50: 3.13 nM
HCV replicon genotype 1b
  IC50: 4.24 nM

## CNC(=O)c1c(-c2ccc(F)cc2)oc2cc(N(C)S(C)(=O)=O)c(-c3ccc4nc(CN5CC6CC6C5)n5c6cccc(F)c6cc5c4n3)cc12 (centres unmarked) [Example 102]
HCV replicon genotype 1a
  IC50: 7.03 nM
HCV replicon genotype 1b
  IC50: 11.8 nM

## CNC(=O)c1c(-c2ccc(F)cc2)oc2cc(N(C)S(C)(=O)=O)c(-c3ccc4nc(CN5CC(C)C5)n5c6cccc(F)c6cc5c4n3)cc12 [Example 103]
HCV replicon genotype 1a
  IC50: 2.05 nM
HCV replicon genotype 1b
  IC50: 5.27 nM

## CNC(=O)c1c(-c2ccc(F)cc2)oc2cc(N(C)S(C)(=O)=O)c(-c3ccc4nc(CN5CC(C)(OC)C5)n5c6cccc(F)c6cc5c4n3)cc12 [Example 104]
HCV replicon genotype 1a
  IC50: 2.31 nM
HCV replicon genotype 1b
  IC50: 5.23 nM

## CNC(=O)c1c(-c2ccc(F)cc2)oc2cc(N(C)S(C)(=O)=O)c(-c3ccc4nc(CN5CCN(C(C)=O)CC5)n5c6cccc(F)c6cc5c4n3)cc12 [Example 105]
HCV replicon genotype 1a
  IC50: 2.6 nM
HCV replicon genotype 1b
  IC50: 3.79 nM

## CNC(=O)c1c(-c2ccc(F)cc2)oc2cc(N(C)S(C)(=O)=O)c(-c3ccc4nc(CN5CCC(F)(C#N)CC5)n5c6cccc(F)c6cc5c4n3)cc12 [Example 106]
HCV replicon genotype 1a
  IC50: 7.25 nM
HCV replicon genotype 1b
  IC50: 8.2 nM

## CNC(=O)c1c(-c2ccc(F)cc2)oc2cc(N(C)S(C)(=O)=O)c(-c3ccc4nc(CN5CC(S(C)(=O)=O)C5)n5c6cccc(F)c6cc5c4n3)cc12 [Example 107]
HCV replicon genotype 1a
  IC50: 3.33 nM
HCV replicon genotype 1b
  IC50: 3.04 nM

## CNC(=O)c1c(-c2ccc(F)cc2)oc2cc(N(C)S(C)(=O)=O)c(-c3ccc4nc(CN5CCN(C)CC5)n5c6cccc(F)c6cc5c4n3)cc12 [Example 108]
HCV replicon genotype 1a
  IC50: 6.08 nM
HCV replicon genotype 1b
  IC50: 8.48 nM

## CNC(=O)c1c(-c2ccc(F)cc2)oc2cc(N(C)S(C)(=O)=O)c(-c3ccc4nc(CN5CC6CC5CO6)n5c6cccc(F)c6cc5c4n3)cc12 (centres unmarked) [Example 109]
HCV replicon genotype 1a
  IC50: 8.1 nM
HCV replicon genotype 1b
  IC50: 11.2 nM

## CNC(=O)c1c(-c2ccc(F)cc2)oc2cc(N(C)S(C)(=O)=O)c(-c3ccc4nc(CN5CC(F)(C#N)C5)n5c6cccc(F)c6cc5c4n3)cc12 [Example 110]
HCV replicon genotype 1a
  IC50: 4.04 nM
HCV replicon genotype 1b
  IC50: 5.51 nM

## CNC(=O)c1c(-c2ccc(F)cc2)oc2cc(N(C)S(C)(=O)=O)c(-c3ccc4nc(CN)n5c6cccc(F)c6cc5c4n3)cc12 [Example 111]
HCV replicon genotype 1a
  IC50: 4.15 nM
HCV replicon genotype 1b
  IC50: 7.79 nM

## CNC(=O)c1c(-c2ccc(F)cc2)oc2cc(N(C)S(C)(=O)=O)c(-c3cc4c(cn3)nc(CN3CCOCC3)n3c5cccc(F)c5cc43)cc12 [Example 112]
HCV replicon genotype 1a
  IC50: 2.02 nM
HCV replicon genotype 1b
  IC50: 3.45 nM

## CNC(=O)c1c(-c2ccc(F)cc2)oc2cc(N(C)S(C)(=O)=O)c(-c3ccc4nc(CN(C)CC(=O)N(C)C)n5c6cccc(F)c6cc5c4n3)cc12 [Example 115]
HCV replicon genotype 1a
  IC50: 2.19 nM
HCV replicon genotype 1b
  IC50: 4.93 nM

## CNC(=O)c1c(-c2ccc(F)cc2)oc2cc(N(C)S(C)(=O)=O)c(-c3ccc4nc(Cn5cncn5)n5c6cccc(F)c6cc5c4n3)cc12 [Example 116]
HCV replicon genotype 1a
  IC50: 1.88 nM
HCV replicon genotype 1b
  IC50: 1.7 nM

## CNC(=O)c1c(-c2ccc(F)cc2)oc2cc(N(C)S(C)(=O)=O)c(-c3cc4c(cn3)nc(CN3CCC(F)(F)C3)n3c5cccc(F)c5cc43)cc12 [Example 117]
HCV replicon genotype 1a
  IC50: 3.49 nM
HCV replicon genotype 1b
  IC50: 5.01 nM

## CNC(=O)c1c(-c2ccc(F)cc2)oc2cc(N(C)S(C)(=O)=O)c(-c3cc4c(cn3)nc(CN3CC(C)(F)C3)n3c5cccc(F)c5cc43)cc12 [Example 118]
HCV replicon genotype 1a
  IC50: 2.67 nM
HCV replicon genotype 1b
  IC50: 4.24 nM

## CNC(=O)c1c(-c2ccc(F)cc2)oc2cc(N(C)S(C)(=O)=O)c(-c3cc4c(cn3)nc(CN3CC(C)(C#N)C3)n3c5cccc(F)c5cc43)cc12 [Example 119]
HCV replicon genotype 1a
  IC50: 1.74 nM
HCV replicon genotype 1b
  IC50: 3.59 nM

## CNC(=O)c1c(-c2ccc(F)cc2)oc2cc(N(C)S(C)(=O)=O)c(-c3ccc4nc(CN5CC(F)C5)n5c6cccc(C#N)c6cc5c4n3)cc12 [Example 120]
HCV replicon genotype 1a
  IC50: 1.67 nM
HCV replicon genotype 1b
  IC50: 2.01 nM

## CNC(=O)c1c(-c2ccc(F)cc2)oc2cc(N(C)S(C)(=O)=O)c(-c3ccc4nc(CN5CC[C@@H](F)C5)n5c6cccc(C#N)c6cc5c4n3)cc12 [Example 121]
HCV replicon genotype 1a
  IC50: 2.95 nM
HCV replicon genotype 1b
  IC50: 3.25 nM

## CNC(=O)c1c(-c2ccc(F)cc2)oc2cc(N(C)S(C)(=O)=O)c(-c3ccc4nc(CN5CCC(F)(F)C5)n5c6cccc(C#N)c6cc5c4n3)cc12 [Example 122]
HCV replicon genotype 1a
  IC50: 2.44 nM
HCV replicon genotype 1b
  IC50: 3.46 nM

## CNC(=O)c1c(-c2ccc(F)cc2)oc2cc(N(C)S(C)(=O)=O)c(-c3ccc4nc(CN5CCC(F)(F)CC5)n5c6cccc(C#N)c6cc5c4n3)cc12 [Example 123]
HCV replicon genotype 1a
  IC50: 6.91 nM
HCV replicon genotype 1b
  IC50: 5.8 nM

## CNC(=O)c1c(-c2ccc(F)cc2)oc2cc(N(C)S(C)(=O)=O)c(-c3ccc4nc(CN5CC(F)(F)C5)n5c6cccc(C#N)c6cc5c4n3)cc12 [Example 124]
HCV replicon genotype 1a
  IC50: 1.89 nM
HCV replicon genotype 1b
  IC50: 1.76 nM

## CNC(=O)c1c(-c2ccc(F)cc2)oc2cc(N(C)S(C)(=O)=O)c(-c3ccc4nc(CN5CC(OC)C5)n5c6cccc(C#N)c6cc5c4n3)cc12 [Example 125]
HCV replicon genotype 1a
  IC50: 2.32 nM
HCV replicon genotype 1b
  IC50: 3.21 nM

## CNC(=O)c1c(-c2ccc(F)cc2)oc2cc(N(C)S(C)(=O)=O)c(-c3ccc4nc(CN5CC(C)(OC)C5)n5c6cccc(C#N)c6cc5c4n3)cc12 [Example 126]
HCV replicon genotype 1a
  IC50: 2.24 nM
HCV replicon genotype 1b
  IC50: 2.72 nM

## CNC(=O)c1c(-c2ccc(F)cc2)oc2cc(N(C)S(C)(=O)=O)c(-c3ccc4nc(CN5CC6(CCOCC6)C5)n5c6cccc(C#N)c6cc5c4n3)cc12 [Example 127]
HCV replicon genotype 1a
  IC50: 1.5 nM
HCV replicon genotype 1b
  IC50: 2.57 nM

## CNC(=O)c1c(-c2ccc(F)cc2)oc2cc(N(C)S(C)(=O)=O)c(-c3ccc4nc(CN5CC(C)(F)C5)n5c6cccc(C#N)c6cc5c4n3)cc12 [Example 128]
HCV replicon genotype 1a
  IC50: 2.3 nM
HCV replicon genotype 1b
  IC50: 2.98 nM
